We go through 13 compounds from US9637483B2, “Heterocyclic compound” (TAKEDA PHARMACEUTICAL COMPANY LIMITED, priority 2013, dated 2017).

Assay type in all cases: biochemical
The target in one test is T1, JAK1 (Homo sapiens, UniProt P23458).
T1 construct: purchased Invitrogen
Nature of the test: JAK1 enzyme inhibition test (LANCE method). The settings on record: 1 μM test compound; for inhibition at 1 µM: read-out: JAK1 enzyme inhibitory activity (%, 1 μM). In short, it runs like this:
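TR-FRET (LANCE) with ULight-JAK1 peptide (300 nM working solution) and ATP (150 μM working solution) in HEPES pH 7.5, MgCl2, EGTA, DTT buffer; 1 h at room temperature. EDTA stop plus Eu-anti-phosphotyrosine antibody, 665 nm read after 1 h. Inhibition relative to enzyme-free wells as 100%.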

A further test has as its target T2, JAK2 (Homo sapiens, UniProt O60674).
T2 construct: purchased Invitrogen
Description: JAK2 enzyme inhibition test (LANCE method). The settings on record: 1 μM test compound; for inhibition at 1 µM: read-out: JAK2 enzyme inhibitory activity (%, 1 μM). In short, it runs like this:
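Recombinant JAK2 (6 ng/mL solution) phosphorylated ULight-JAK1 peptide (300 nM solution) with ATP (45 μM solution) in pH 7.5 HEPES/MgCl2/DTT buffer for 1 hr at room temperature. After EDTA stop and europium anti-phosphotyrosine antibody for 1 hr, TR-FRET read at 665 nm; inhibition relative to enzyme-free wells as 100%.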

The target of the next test is T3, JAK3 (Homo sapiens, UniProt P52333).
T3 construct: purchased Invitrogen
T3 sequence (P52333 1-1124): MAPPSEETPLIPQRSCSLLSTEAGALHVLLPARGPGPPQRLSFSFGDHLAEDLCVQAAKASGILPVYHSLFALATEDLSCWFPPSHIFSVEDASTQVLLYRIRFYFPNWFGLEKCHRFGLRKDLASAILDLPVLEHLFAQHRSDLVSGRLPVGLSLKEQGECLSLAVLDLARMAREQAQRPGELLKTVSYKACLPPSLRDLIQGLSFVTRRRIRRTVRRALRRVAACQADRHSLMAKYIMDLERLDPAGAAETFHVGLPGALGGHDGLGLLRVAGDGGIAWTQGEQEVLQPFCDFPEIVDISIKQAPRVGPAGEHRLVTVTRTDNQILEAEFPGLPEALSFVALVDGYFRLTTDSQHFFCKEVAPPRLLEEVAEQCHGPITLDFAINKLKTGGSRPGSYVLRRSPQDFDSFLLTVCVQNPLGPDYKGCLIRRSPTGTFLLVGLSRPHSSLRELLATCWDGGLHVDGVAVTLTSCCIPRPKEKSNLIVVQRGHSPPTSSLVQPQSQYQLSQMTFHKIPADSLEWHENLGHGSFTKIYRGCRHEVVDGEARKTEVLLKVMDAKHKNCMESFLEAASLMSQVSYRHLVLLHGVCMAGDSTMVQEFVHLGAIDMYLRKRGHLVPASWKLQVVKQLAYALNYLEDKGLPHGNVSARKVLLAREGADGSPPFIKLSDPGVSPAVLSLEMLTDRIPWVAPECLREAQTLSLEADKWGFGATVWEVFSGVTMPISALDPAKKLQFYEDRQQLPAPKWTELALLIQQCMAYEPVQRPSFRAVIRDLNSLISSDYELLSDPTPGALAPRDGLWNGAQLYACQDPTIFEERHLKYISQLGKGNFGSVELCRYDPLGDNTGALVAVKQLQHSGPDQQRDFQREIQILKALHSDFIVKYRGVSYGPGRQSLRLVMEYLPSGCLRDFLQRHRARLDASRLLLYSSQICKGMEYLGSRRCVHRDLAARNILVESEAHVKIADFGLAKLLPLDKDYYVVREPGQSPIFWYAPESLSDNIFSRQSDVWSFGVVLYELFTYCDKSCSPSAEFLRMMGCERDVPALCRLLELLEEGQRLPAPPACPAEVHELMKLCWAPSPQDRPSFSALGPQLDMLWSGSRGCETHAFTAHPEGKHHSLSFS
Nature of the test: JAK3 enzyme inhibition test (LANCE method). The settings on record: 1 μM test compound; for inhibition at 1 µM: read-out: JAK3 enzyme inhibitory activity (%, 1 μM). An outline of the steps:
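Recombinant JAK3 (12 ng/mL solution) with ULight-JAK1 peptide (300 nM solution) and ATP (15 μM solution) in HEPES pH 7.5 buffer, 1 h at room temperature. EDTA stop with Eu-anti-phosphotyrosine antibody; TR-FRET at 665 nm. Inhibition relative to enzyme-free wells as 100%.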
For orientation: In TR-FRET formats the signal depends on donor and acceptor labels being close together.

In a further test the target is T4, TYK2 (Homo sapiens, UniProt P29597).
T4 construct: purchased Invitrogen
T4 sequence (P29597 whole entry): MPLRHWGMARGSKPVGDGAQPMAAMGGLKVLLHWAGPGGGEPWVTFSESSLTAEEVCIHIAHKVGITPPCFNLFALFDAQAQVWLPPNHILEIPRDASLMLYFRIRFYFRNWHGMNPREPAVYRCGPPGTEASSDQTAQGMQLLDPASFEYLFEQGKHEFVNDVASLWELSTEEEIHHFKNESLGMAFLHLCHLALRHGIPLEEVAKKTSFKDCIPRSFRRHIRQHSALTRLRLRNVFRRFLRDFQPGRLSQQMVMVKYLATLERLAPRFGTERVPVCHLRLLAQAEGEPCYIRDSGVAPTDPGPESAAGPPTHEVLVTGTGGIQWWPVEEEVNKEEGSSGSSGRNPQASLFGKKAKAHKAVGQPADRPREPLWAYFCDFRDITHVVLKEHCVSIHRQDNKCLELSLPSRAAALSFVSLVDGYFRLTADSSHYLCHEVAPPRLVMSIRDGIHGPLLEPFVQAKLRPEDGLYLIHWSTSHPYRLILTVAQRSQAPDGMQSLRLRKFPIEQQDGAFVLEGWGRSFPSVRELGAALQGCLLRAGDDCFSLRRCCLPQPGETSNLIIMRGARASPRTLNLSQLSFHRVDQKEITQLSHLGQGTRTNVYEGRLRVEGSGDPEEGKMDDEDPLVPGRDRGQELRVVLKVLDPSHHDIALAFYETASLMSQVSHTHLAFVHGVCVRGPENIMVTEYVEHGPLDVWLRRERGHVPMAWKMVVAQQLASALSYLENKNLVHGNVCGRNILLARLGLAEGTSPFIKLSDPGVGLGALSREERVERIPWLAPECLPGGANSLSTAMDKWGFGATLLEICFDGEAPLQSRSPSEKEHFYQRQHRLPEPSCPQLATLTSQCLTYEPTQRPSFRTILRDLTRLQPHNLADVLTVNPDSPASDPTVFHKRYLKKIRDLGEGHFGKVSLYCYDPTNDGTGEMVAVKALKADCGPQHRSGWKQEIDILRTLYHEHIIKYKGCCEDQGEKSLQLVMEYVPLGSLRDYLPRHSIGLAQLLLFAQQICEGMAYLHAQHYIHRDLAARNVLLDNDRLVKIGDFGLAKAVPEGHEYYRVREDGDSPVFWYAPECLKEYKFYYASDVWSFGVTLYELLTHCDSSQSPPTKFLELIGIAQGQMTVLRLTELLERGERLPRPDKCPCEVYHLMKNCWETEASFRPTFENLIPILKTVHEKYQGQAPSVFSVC
Nature of the test: TYK2 enzyme inhibition test (LANCE method). The settings on record: 1 μM test compound; for inhibition at 1 µM: read-out: TYK2 enzyme inhibitory activity (%, 1 μM). In short, it runs like this:
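Recombinant TYK2 (375 ng/mL working solution) with ULight-JAK1 peptide (300 nM working solution) and ATP (30 μM working solution) in HEPES pH 7.5 buffer with MgCl2, EGTA, DTT, Tween20, BSA, reacted 1 h at RT. EDTA-stopped, Eu-anti-phosphotyrosine TR-FRET read at 665 nm; inhibition relative to enzyme-free wells as 100%.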

T2 sequence (O60674 whole entry): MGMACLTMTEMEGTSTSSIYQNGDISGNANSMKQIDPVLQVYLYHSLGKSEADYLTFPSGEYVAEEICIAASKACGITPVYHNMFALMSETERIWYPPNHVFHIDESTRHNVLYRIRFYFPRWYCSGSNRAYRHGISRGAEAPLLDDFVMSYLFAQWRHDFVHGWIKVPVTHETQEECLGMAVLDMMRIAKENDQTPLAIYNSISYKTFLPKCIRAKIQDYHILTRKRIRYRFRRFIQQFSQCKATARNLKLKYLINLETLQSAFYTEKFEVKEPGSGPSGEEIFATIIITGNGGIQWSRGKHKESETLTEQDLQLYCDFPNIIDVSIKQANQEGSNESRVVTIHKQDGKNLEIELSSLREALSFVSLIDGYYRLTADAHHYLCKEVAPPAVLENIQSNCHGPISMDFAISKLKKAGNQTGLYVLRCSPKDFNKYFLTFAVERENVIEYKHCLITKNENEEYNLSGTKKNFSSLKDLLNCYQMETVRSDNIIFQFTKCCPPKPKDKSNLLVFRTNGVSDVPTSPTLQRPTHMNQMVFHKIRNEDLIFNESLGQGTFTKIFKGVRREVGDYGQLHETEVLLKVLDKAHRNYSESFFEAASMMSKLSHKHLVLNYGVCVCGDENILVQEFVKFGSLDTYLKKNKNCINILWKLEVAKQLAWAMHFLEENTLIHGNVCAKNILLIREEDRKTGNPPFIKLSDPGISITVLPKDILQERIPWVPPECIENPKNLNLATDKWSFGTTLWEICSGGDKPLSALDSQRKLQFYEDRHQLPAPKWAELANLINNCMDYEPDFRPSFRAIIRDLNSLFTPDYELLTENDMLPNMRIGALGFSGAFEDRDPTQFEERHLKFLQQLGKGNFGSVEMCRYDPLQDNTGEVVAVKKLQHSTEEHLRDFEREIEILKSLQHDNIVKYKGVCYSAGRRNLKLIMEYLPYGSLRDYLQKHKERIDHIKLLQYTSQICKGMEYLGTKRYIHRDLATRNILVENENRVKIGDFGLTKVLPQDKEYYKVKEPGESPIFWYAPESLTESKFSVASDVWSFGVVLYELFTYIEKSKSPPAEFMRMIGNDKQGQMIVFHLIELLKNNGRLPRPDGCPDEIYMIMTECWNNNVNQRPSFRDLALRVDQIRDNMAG
T1 sequence (P23458 whole entry): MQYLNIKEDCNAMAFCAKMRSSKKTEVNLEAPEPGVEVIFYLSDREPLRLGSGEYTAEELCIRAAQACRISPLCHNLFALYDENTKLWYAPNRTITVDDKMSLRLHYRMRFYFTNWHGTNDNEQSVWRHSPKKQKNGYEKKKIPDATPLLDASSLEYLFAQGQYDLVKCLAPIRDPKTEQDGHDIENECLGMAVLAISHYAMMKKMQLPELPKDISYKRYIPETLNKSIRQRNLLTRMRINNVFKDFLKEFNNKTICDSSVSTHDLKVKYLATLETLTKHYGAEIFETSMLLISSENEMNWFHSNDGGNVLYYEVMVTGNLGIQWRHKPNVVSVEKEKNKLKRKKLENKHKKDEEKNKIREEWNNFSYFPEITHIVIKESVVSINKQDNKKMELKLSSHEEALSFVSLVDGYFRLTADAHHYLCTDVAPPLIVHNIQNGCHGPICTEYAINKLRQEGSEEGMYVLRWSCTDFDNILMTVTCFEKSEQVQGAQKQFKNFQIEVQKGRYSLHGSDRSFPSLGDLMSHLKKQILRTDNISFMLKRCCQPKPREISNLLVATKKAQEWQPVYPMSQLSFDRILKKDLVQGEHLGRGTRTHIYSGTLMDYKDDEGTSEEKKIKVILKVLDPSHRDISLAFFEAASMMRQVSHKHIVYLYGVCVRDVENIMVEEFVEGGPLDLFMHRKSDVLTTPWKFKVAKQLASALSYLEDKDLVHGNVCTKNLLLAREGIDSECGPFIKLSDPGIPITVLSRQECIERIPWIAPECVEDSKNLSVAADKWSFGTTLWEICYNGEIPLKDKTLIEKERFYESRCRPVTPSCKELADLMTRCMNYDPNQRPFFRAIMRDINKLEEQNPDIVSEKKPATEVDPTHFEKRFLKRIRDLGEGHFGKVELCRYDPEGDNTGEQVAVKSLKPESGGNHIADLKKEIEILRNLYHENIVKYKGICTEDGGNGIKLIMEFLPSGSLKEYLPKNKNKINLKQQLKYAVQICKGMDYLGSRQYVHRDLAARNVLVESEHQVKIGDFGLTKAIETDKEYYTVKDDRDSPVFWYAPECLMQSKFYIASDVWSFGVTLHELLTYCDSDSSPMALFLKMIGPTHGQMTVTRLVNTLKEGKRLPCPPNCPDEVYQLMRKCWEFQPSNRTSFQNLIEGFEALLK

On to `CC(C)[C@H](C)n1cc(-c2cc(C(C)(C)O)n(C)n2)c2[nH]nc(N)c2c1=O.Cl` [Example 86, 3-amino-7-(5-(2-hydroxypropan-2-yl)-1-methyl-1H-pyrazol-3-yl)-5-((2S)-3-methylbutan-2-yl)-1,5-dihydro-4H-pyrazolo[4,3-c]pyridin-4-one hydrochloride], for which the “JAK1 enzyme inhibitory activity (%, 1 μM)” value on JAK1 is recorded as 98%. For the same compound, the “JAK2 enzyme inhibitory activity (%, 1 μM)” value on JAK2 came out at 98%. At JAK3, the “JAK3 enzyme inhibitory activity (%, 1 μM)” value is given as 99%. Further, the “TYK2 enzyme inhibitory activity (%, 1 μM)” value on TYK2 worked out at 100%.

`CCOC(=O)C(C(C)C)n1cc(-c2cc(N3CCOCC3)n(C)n2)c2[nH]nc(N)c2c1=O` (stereo not shown) [Example 84, ethyl 2-(3-amino-7-(1-methyl-5-(morpholin-4-yl)-1H-pyrazol-3-yl)-4-oxo-1,4-dihydro-5H-pyrazolo[4,3-c]pyridin-5-yl)-3-methylbutanoate]: the inhibition at 1 µM worked out at 84% on JAK1, 87% at JAK2, 97% on JAK3 and 83% on TYK2.

Take `CC1CCCCC1n1cc(-c2cc(N3CCOCC3)n(C)n2)c2[nH]nc(N)c2c1=O` (stereo not shown) [Example 155, 3-amino-5-(2-methylcyclohexyl)-7-(1-methyl-5-(morpholin-4-yl)-1H-pyrazol-3-yl)-1,5-dihydro-4H-pyrazolo[4,3-c]pyridin-4-one]: the “JAK1 enzyme inhibitory activity (%, 1 μM)” value on JAK1 (1 µM) is 76%. In addition, the “JAK2 enzyme inhibitory activity (%, 1 μM)” value on JAK2 (1 µM) turned out to be 81%. Besides, on JAK3 (1 µM), the “JAK3 enzyme inhibitory activity (%, 1 μM)” value was determined as 98%. Besides, on TYK2 (1 µM), the “TYK2 enzyme inhibitory activity (%, 1 μM)” value was 101%.

As for `CC(C)[C@H](C)n1cc(-c2cc(C(=O)N3CCS(=O)(=O)CC3)n(C)n2)c2[nH]nc(N)c2c1=O` [Example 45, 3-amino-7-(5-((1,1-dioxidothiomorpholin-4-yl)carbonyl)-1-methyl-1H-pyrazol-3-yl)-5-((2S)-3-methylbutan-2-yl)-1,5-dihydro-4H-pyrazolo[4,3-c]pyridin-4-one], the inhibition at 1 µM at JAK1 was found to be 98%; on JAK2, 99%; on JAK3, 99%; on TYK2 it was 100%.

As to `Cn1nc(-c2cn(C(C3CC3)C3CC3)c(=O)c3c(N)n[nH]c23)cc1N1CCC[C@@H]1CN1CCCC1` [Example 158, 3-amino-5-(dicyclopropylmethyl)-7-(1-methyl-5-((2R)-2-(pyrrolidin-1-ylmethyl)pyrrolidin-1-yl)-1H-pyrazol-3-yl)-1,5-dihydro-4H-pyrazolo[4,3-c]pyridin-4-one], the inhibition at 1 µM at JAK1 was determined as 92%; on JAK2, 99%; at JAK3, 100%; at TYK2 it was 101%.

For `CC(C)[C@H](C)n1cc(-c2cc(N3CCOC3=O)n(C)n2)c2[nH]nc(N)c2c1=O` [Example 54, 3-amino-5-((2S)-3-methylbutan-2-yl)-7-(1-methyl-5-(2-oxo-1,3-oxazolidin-3-yl)-1H-pyrazol-3-yl)-1,5-dihydro-4H-pyrazolo[4,3-c]pyridin-4-one], the inhibition at 1 µM on JAK1 is 98%; on JAK2, 98%; at JAK3, 99%; at TYK2 it was 98%.

As to `CC(C)C(C#N)n1cc(-c2cc(N3CCOCC3)n(C)n2)c2[nH]nc(N)c2c1=O` (racemic) [Example 112, 2-(3-amino-7-(1-methyl-5-(morpholin-4-yl)-1H-pyrazol-3-yl)-4-oxo-1,4-dihydro-5H-pyrazolo[4,3-c]pyridin-5-yl)-3-methylbutanenitrile], the inhibition at 1 µM was found to be 98% at JAK1, 98% on JAK2, 99% on JAK3 and 100% at TYK2.

With `CC1CN(c2cc(-c3cn([C@@H](C)C(C)C)c(=O)c4c(N)n[nH]c34)nn2C)CCO1` (stereo partly drawn) [Example 31, 3-amino-5-((2S)-3-methylbutan-2-yl)-7-(1-methyl-5-(2-methylmorpholin-4-yl)-1H-pyrazol-3-yl)-1,5-dihydro-4H-pyrazolo[4,3-c]pyridin-4-one], the inhibition at 1 µM on JAK1 was 97%; at JAK2 it was 98%; on JAK3 it was 99%; at TYK2 it was 99%.

Regarding `CC(C)C(C1CC1)n1cc(-c2cc(N3CCOCC3)n(C)n2)c2[nH]nc(N)c2c1=O` (stereo not shown) [Example 115, 3-amino-5-(1-cyclopropyl-2-methylpropyl)-7-(1-methyl-5-(morpholin-4-yl)-1H-pyrazol-3-yl)-1,5-dihydro-4H-pyrazolo[4,3-c]pyridin-4-one], the inhibition at 1 µM on JAK1 turned out to be 93%; at JAK2, 91%; at JAK3 it was 99%; on TYK2, 100%.

Regarding `CC1CN(c2cc(-c3cn([C@@H](C)C(C)C)c(=O)c4c(N)n[nH]c34)nn2C)CCO1` (stereo partly drawn) [Example 59, 3-amino-5-((2S)-3-methylbutan-2-yl)-7-(1-methyl-5-(2-methylmorpholin-4-yl)-1H-pyrazol-3-yl)-1,5-dihydro-4H-pyrazolo[4,3-c]pyridin-4-one], on JAK1 (1 µM), the “JAK1 enzyme inhibitory activity (%, 1 μM)” value stood at 97%. On JAK2, the “JAK2 enzyme inhibitory activity (%, 1 μM)” value came to 98%. Further, the “JAK3 enzyme inhibitory activity (%, 1 μM)” value on JAK3 is listed as 99%. Besides, the “TYK2 enzyme inhibitory activity (%, 1 μM)” value on TYK2 (1 µM) came out at 100%.

Take `CC(=O)N(C)C[C@H]1CCCN1c1cc(-c2cn(C(C3CC3)C3CC3)c(=O)c3c(N)n[nH]c23)nn1C` [Example 175, N-(((2R)-1-(3-(3-amino-5-(dicyclopropylmethyl)-4-oxo-4,5-dihydro-1H-pyrazolo[4,3-c]pyridin-7-yl)-1-methyl-1H-pyrazol-5-yl)pyrrolidin-2-yl)methyl)-N-methylacetamide]: the inhibition at 1 µM at JAK1 is 96%; at JAK2 it was 97%; on JAK3 it was 98%; on TYK2, 98%.

For the compound `CC(C)[C@H](C)n1cc(-c2cc(N3CC4(COC4)C3)n(C)n2)c2[nH]nc(N)c2c1=O` [Example 105, 3-amino-5-((2S)-3-methylbutan-2-yl)-7-(1-methyl-5-(2-oxa-6-azaspiro[3.3]hept-6-yl)-1H-pyrazol-3-yl)-1,5-dihydro-4H-pyrazolo[4,3-c]pyridin-4-one], the inhibition at 1 µM worked out at 97% at JAK1, 99% at JAK2, 99% at JAK3 and 99% at TYK2.

For `Cn1nc(-c2cn(C3CCCC3(C)C)c(=O)c3c(N)n[nH]c23)cc1CN1CCS(=O)(=O)CC1` (stereo not shown) [Example 75, 3-amino-5-(2,2-dimethylcyclopentyl)-7-(5-((1,1-dioxidothiomorpholin-4-yl)methyl)-1-methyl-1H-pyrazol-3-yl)-1,5-dihydro-4H-pyrazolo[4,3-c]pyridin-4-one], on JAK1 (1 µM), the “JAK1 enzyme inhibitory activity (%, 1 μM)” value turned out to be 66%. Also, the “JAK2 enzyme inhibitory activity (%, 1 μM)” value on JAK2 (1 µM) is listed as 87%. Moreover, the “JAK3 enzyme inhibitory activity (%, 1 μM)” value at JAK3 (1 µM) turned out to be 93%. In addition, on TYK2 (1 µM), the “TYK2 enzyme inhibitory activity (%, 1 μM)” value was 92%.
